From patent publication US20160355530A1, “HEPATITIS C INHIBITORS AND USES THEREOF” (AbbVie Inc., priority 2010, published 2016) come the findings set out here.

Structures are written as SMILES. pEC50, pIC50: −log10 of the molar value. Where two headings read alike, the source gives them in different places.

Experiment [1] concerns chimeric replicon with genotype 4a NS5B. In words: microbe, parasite or virus in culture. Conditions: Hepatitis C virus, read-out: 4a chimera 5% FBS EC50. The class given is cell-based, HCV genotype 4a.
The test system of experiment [2] is HCV 1a-H77 subgenomic replicon. In words: microbe, parasite or virus in culture. In kind it is cell-based, HCV genotype 1a. Conditions: Hepatitis C virus, stable replicon.
For experiment [3], the system named is chimeric replicon with genotype 2b NS5B. In words: microbe, parasite or virus in culture. The class given is cell-based, HCV genotype 2b. Conditions: Hepatitis C virus, read-out: 2b chimera 5% FBS EC50.
For experiment [4], the system named is HCV 1b-BB7 subgenomic replicon. Description: microbe, parasite or virus in culture. The class given is cell-based, HCV genotype 1b. Conditions: Hepatitis C virus, stable replicon.
For experiment [5], the system named is chimeric replicon with genotype 3a NS5B. Description: microbe, parasite or virus in culture. The class given is cell-based, HCV genotype 3a. Conditions: Hepatitis C virus, read-out: 3a chimera 5% FBS EC50.
Experiment [6] relates to HCV NS5B polymerase 1a-H77-C316Y. Description: biochemical. Conditions: ratio of enzyme IC50s, 1a H77-C316Y / 1a H77. Set-up: species or system HCV genotype 1a. The method, boiled down:
(§1)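 E. coli-expressed NS5B (residues 1-570, His-tagged) transcribed a 2.1 kb HCV 1b negative-strand 3′-end RNA template (5 nM) with 20 μM CTP, 20 μM ATP and 0.284 μM [3H]UTP for 3 h at 30° C. Spermine-precipitated RNA was filter-captured and counted by scintillation; IC50 from nonlinear regression.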

Experiment [7] deals with T1, HCV NS5B polymerase 1a-H77-C316Y (Hepatitis C virus genotype 1a, UniProt P27958, C2736Y).
T1 construct: six-histidine tag; made in house; host or cells: E. coli
Description: biochemical. Also on record: species or system HCV genotype 1a. In short, it runs like this: as §1

In experiment [8] the target is T2, HCV NS5B polymerase 1a-H77 (Hepatitis C virus genotype 1a, UniProt P27958).
T2 construct: six-histidine tag; made in house; host or cells: E. coli
Description: biochemical. Set-up: species or system HCV genotype 1a. Conditions: enzyme, strain 1a H77; read-out: HCV Polymerase Strain 1a H77 IC50. In short, it runs like this:
as §1

Experiment [9] deals with chimeric replicon with 2a-J6CF-derived NS5B. In words: microbe, parasite or virus in culture. In kind it is cell-based, HCV genotype 2a. Conditions: Hepatitis C virus, read-out: 2a chimera 5% FBS EC50.
For experiment [10], the target named is T3, HCV NS5B polymerase 1b BK strain (Hepatitis C virus genotype 1b, UniProt P26663).
T3 construct: six-histidine tag; made in house; host or cells: E. coli
In words: HCV NS5B polymerase enzymatic inhibition assay, strain 1b BK. The class given is biochemical. Conditions: enzyme, strain 1b BK; read-out: HCV Polymerase Strain 1b BK IC50. In short, it runs like this: as §1

In experiment [11] the test system is HCV 1a-H77-C316Y transient subgenomic replicon in Huh-7 derived cell line. Description: microbe, parasite or virus in culture. Conditions: for pEC50: Hepatitis C virus, Huh-7, read-out: Transient Replicon 1a H77-C316Y 5% FBS EC50; for Transient Replicon Fold Resistance C316Y/1a: ratio of transient replicon EC50s, C316Y / 1a H77. In kind it is cell-based, HCV genotype 1a. The method, boiled down:
(§2)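 Subgenomic replicon RNA (no Neo gene) electroporated into Huh-7-derived cells, plated at 5×10^3 cells/well; a 4 h plate gauged transfection efficiency. Cells exposed to 3-fold compound dilutions (0.5% DMSO) for 4 days at 37° C, then lysed for luciferase readout; EC50 calculated.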

Experiment [12] relates to HCV 1a-H77 transient subgenomic replicon in Huh-7 derived cell line. Description: microbe, parasite or virus in culture. In kind it is cell-based, HCV genotype 1a. Conditions: Hepatitis C virus, Huh-7; transient replicon, 5% FBS; read-out: Transient Replicon 1a H77 5% FBS EC50. The method, boiled down:
as §2

Where [13] appears, read: 5% FBS, absence of human plasma, read-out: Stable Replicon 1a H77 5% FBS EC50.
Setting [14] is: strain 1a H77, 5% FBS + 40% human plasma, read-out: 1a H77 5% FBS + 40% Human Plasma EC50.
Where [15] appears, read: strain 1a H77, 5% FBS, no human plasma, read-out: 1a H77 5% FBS EC50.
The mark [16] stands for this setting: strain 1a H77, 5% FBS, read-out: 1a H77 5% FBS EC50.
[17] abbreviates: strain 1b BB7, 5% FBS + 40% human plasma, read-out: 1b BB7 5% FBS + 40% Human Plasma EC50.
Setting [18] is: strain 1b BB7, 5% FBS, no human plasma, read-out: 1b BB7 5% FBS EC50.
Where [19] appears, read: strain 1b BB7, 5% FBS, read-out: 1b BB7 5% FBS EC50.

T3 sequence (P26663 2420-2989): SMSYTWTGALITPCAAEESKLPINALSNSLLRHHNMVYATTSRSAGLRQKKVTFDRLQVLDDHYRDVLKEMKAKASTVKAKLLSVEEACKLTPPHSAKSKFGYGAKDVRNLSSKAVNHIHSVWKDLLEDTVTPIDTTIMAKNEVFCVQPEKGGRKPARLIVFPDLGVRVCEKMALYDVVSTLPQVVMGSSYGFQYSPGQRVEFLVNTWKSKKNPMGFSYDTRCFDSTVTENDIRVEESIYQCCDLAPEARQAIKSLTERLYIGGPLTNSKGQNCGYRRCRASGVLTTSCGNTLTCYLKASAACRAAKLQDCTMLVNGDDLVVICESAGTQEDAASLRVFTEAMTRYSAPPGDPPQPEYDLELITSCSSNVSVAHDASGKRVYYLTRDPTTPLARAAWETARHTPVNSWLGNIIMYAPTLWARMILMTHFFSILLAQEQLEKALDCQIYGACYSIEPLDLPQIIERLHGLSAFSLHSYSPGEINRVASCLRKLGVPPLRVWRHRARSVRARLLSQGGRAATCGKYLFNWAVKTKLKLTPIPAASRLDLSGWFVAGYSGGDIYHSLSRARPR
T1 sequence (P27958 2421-2990 C2736Y): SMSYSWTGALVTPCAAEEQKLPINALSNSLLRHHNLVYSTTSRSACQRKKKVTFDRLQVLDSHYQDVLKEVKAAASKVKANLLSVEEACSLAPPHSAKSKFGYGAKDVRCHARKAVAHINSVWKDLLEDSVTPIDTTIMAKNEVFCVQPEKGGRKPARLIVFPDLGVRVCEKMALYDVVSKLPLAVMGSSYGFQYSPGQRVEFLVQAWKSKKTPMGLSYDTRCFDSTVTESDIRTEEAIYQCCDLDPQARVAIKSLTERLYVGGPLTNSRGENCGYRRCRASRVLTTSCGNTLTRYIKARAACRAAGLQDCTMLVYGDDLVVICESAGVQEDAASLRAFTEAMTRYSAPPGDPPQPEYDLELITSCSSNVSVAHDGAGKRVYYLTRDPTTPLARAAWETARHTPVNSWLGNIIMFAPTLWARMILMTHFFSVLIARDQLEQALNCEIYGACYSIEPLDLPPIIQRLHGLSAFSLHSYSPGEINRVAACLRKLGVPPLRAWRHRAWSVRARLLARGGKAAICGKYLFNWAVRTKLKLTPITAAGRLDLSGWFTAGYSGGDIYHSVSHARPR
T2 sequence (P27958 2421-2990): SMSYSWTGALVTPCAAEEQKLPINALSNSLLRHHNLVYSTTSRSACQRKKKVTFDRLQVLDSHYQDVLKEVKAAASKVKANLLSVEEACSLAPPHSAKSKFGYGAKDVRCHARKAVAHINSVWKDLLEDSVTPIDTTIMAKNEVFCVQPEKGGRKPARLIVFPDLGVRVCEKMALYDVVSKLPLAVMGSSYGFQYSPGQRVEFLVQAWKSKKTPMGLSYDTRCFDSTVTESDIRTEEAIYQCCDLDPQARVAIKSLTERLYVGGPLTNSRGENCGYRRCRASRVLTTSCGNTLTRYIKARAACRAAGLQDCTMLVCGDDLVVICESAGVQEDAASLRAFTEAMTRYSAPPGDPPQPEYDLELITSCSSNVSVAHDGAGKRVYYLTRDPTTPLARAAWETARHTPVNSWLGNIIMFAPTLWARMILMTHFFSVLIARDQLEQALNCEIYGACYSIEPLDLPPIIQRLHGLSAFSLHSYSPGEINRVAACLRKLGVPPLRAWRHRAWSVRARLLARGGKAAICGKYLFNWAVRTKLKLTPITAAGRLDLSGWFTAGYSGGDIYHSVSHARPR

Turning to `CS(=O)(=O)N(CCCCCO)c1cc2oc(-c3ccc(F)cc3)c(C3=NOCN3)c2cc1C1CC1` [Example 147, N-[5-cyclopropyl-3-(4,5-dihydro-1,2,4-oxadiazol-3-yl)-2-(4-fluorophenyl)-1-benzofuran-6-yl]-N-(5-hydroxypentyl)methanesulfonamide], the pEC50 in experiment [1] was 7.18; in experiment [2] (setting [13]) it was 8.05; in [2] (setting [14]) it was 5.77; in [2] (setting [15]) it was 8.05; in [2] (setting [16]) it was 8.05; in [3], 7.21. Moreover, the negative-log EC50 (pEC50) is 5.74 in experiment [4] (setting [17]); 8.01 in experiment [4] (setting [18]); 8.01 in experiment [4] (setting [19]); 7.99 in experiment [5]; 7.07 in [9]; 7.11 in experiment [11]. Also, in experiment [12], the pEC50 was 8.01. In experiment [6], the “C316Y/1a Fold Resistance” value is 14 fold. Further, the figures for the pIC50 in experiment [7], in experiment [8] and in experiment [10] were 7.31, 8.46 and 8.05, respectively. The “Transient Replicon Fold Resistance C316Y/1a” value in experiment [11] was found to be 8 fold.
Take `CS(=O)(=O)N(CCCO)c1cc2oc(-c3ccc(F)cc3)c(C3=NOCCN3)c2cc1C1CC1` [Example 137, N-[5-cyclopropyl-3-(5,6-dihydro-4H-1,2,4-oxadiazin-3-yl)-2-(4-fluorophenyl)-1-benzofuran-6-yl]-N-(3-hydroxypropyl)methanesulfonamide]: the pEC50 in experiment [1] is 6.76; in experiment [2] (setting [13]) it was 7.82; in experiment [2] (setting [14]), 7.23; in experiment [2] (setting [15]) it was 7.82; in [2] (setting [16]), 7.82; in [3], 6.67. Besides, the negative logarithm of the EC50 (pEC50) was 6.95 in [4] (setting [17]); 7.77 in experiment [4] (setting [18]); 7.77 in [4] (setting [19]); 7.48 in experiment [5]; 6.74 in [9]; 6.97 in experiment [11]. In addition, the pEC50 in experiment [12] is 8.00. Besides, in experiment [6], the “C316Y/1a Fold Resistance” value is listed as 9 fold. Further, the pIC50 was 7.41 in experiment [7], 8.38 in experiment [8] and 7.10 in [10]. For the same compound, in [11], the “Transient Replicon Fold Resistance C316Y/1a” value turned out to be 11 fold.
Turning to `CS(=O)(=O)N(CCCC(N)=O)c1cc2oc(-c3ccc(F)cc3)c(-c3ncc[nH]3)c2cc1C1CC1` [Example 108, 4-{[5-cyclopropyl-2-(4-fluorophenyl)-3-(1H-imidazol-2-yl)-1-benzofuran-6-yl](methylsulfonyl)amino}butanamide], the pEC50 in [1] was 6.98; in [2] (setting [13]), 7.82; in experiment [2] (setting [14]) it was 7.31; in [2] (setting [15]), 7.82; in experiment [2] (setting [16]), 7.82; in experiment [3], 6.73. Besides, the pEC50 in experiment [4] (setting [17]) was 7.24; in experiment [4] (setting [18]), 8.00; in experiment [4] (setting [19]) it was 8.00; in [5] it was 7.96; in experiment [9], 6.81; in experiment [11] it was 6.69. Further, in experiment [12], the pEC50 was 8.10. For the same compound, the “C316Y/1a Fold Resistance” value in experiment [6] is reported as 17 fold. Further, the pIC50 in [7] was 7.22; in experiment [8], 8.46; in experiment [10] it was 7.55. Also, the “Transient Replicon Fold Resistance C316Y/1a” value in [11] is given as 26 fold.
Consider `CS(=O)(=O)CCCN(c1cc2oc(-c3ccc(F)cc3)c(-c3ncc[nH]3)c2cc1C1CC1)S(C)(=O)=O` [Example 101, N-[5-cyclopropyl-2-(4-fluorophenyl)-3-(1H-imidazol-2-yl)-1-benzofuran-6-yl]-N-[3-(methylsulfonyl)propyl]methanesulfonamide], for which the pEC50 in experiment [1] was 7.25; in [2] (setting [13]) it was 8.39; in [2] (setting [14]), 6.96; in experiment [2] (setting [15]), 8.39; in experiment [2] (setting [16]), 8.39; in experiment [3], 7.48. Moreover, the pEC50 is 7.12 in experiment [4] (setting [17]); 8.23 in experiment [4] (setting [18]); 8.23 in experiment [4] (setting [19]); 8.37 in experiment [5]; 7.48 in [9]; 6.99 in experiment [11]. In addition, the pEC50 in experiment [12] is 8.43. The “C316Y/1a Fold Resistance” value in experiment [6] stood at 9 fold. Further, the pIC50 is 7.34 in [7], 8.30 in [8] and 7.96 in experiment [10]. Further, the “Transient Replicon Fold Resistance C316Y/1a” value in experiment [11] is recorded as 28 fold.
`CS(=O)(=O)CCN(c1cc2oc(-c3ccc(F)cc3)c(-c3ncc[nH]3)c2cc1C1CC1)S(C)(=O)=O` [Example 87, N-[5-cyclopropyl-2-(4-fluorophenyl)-3-(1H-imidazol-2-yl)-1-benzofuran-6-yl]-N-[2-(methylsulfonyl)ethyl]methanesulfonamide]: the pEC50 is 7.32 in [1]; 8.12 in experiment [2] (setting [13]); 7.19 in experiment [2] (setting [14]); 8.12 in experiment [2] (setting [15]); 8.12 in [2] (setting [16]); 7.07 in experiment [3]. Also, the pEC50 was 7.24 in [4] (setting [17]); 8.31 in [4] (setting [18]); 8.31 in [4] (setting [19]); 8.49 in experiment [5]; 7.19 in experiment [9]; 6.81 in experiment [11]. Further, the pEC50 in experiment [12] is 8.21. Also, the “C316Y/1a Fold Resistance” value in experiment [6] came to 26 fold. Also, the pIC50 in [7] was 6.81; in experiment [8], 8.22; in experiment [10], 7.64. Besides, the “Transient Replicon Fold Resistance C316Y/1a” value in experiment [11] came to 25 fold.
With `CS(=O)(=O)N(CCCO)c1cc2oc(-c3ccc(F)cc3)c(-c3ncc[nH]3)c2cc1C1CC1` [Example 65, N-[5-cyclopropyl-2-(4-fluorophenyl)-3-(1H-imidazol-2-yl)-1-benzofuran-6-yl]-N-(3-hydroxypropyl)methanesulfonamide], the pEC50 is 7.06 in experiment [1]; 7.99 in [2] (setting [13]); 6.92 in experiment [2] (setting [14]); 7.99 in [2] (setting [15]); 7.99 in experiment [2] (setting [16]); 7.16 in [3]. Moreover, the pEC50 in [4] (setting [17]) was 7.23; in [4] (setting [18]), 8.17; in experiment [4] (setting [19]) it was 8.17; in [5] it was 8.40; in experiment [9] it was 7.37; in experiment [11], 6.64. Moreover, the pEC50 in experiment [12] is 8.27. Besides, the “C316Y/1a Fold Resistance” value in experiment [6] stood at 24 fold. The pIC50 in experiment [7] is 6.78; in experiment [8] it was 8.16; in experiment [10], 7.28. Further, the “Transient Replicon Fold Resistance C316Y/1a” value in [11] was found to be 42 fold.
Regarding `CS(=O)(=O)N(CCCS(=O)(=O)c1ccccc1)c1cc2oc(-c3ccc(F)cc3)c(-c3ncc[nH]3)c2cc1C1CC1` [Example 90, N-[5-cyclopropyl-2-(4-fluorophenyl)-3-(1H-imidazol-2-yl)-1-benzofuran-6-yl]-N-[3-(phenylsulfonyl)propyl]methanesulfonamide], the pEC50 is 7.56 in experiment [1]; 7.99 in experiment [2] (setting [13]); 7.03 in [2] (setting [14]); 7.99 in experiment [2] (setting [15]); 7.99 in [2] (setting [16]); 7.17 in experiment [3]. For the same compound, the pEC50 in experiment [4] (setting [17]) is 7.32; in experiment [4] (setting [18]), 8.22; in experiment [4] (setting [19]), 8.22; in experiment [5], 7.89; in experiment [9], 7.32; in experiment [11], 7.18. The pEC50 in experiment [12] was 8.57. Besides, the “C316Y/1a Fold Resistance” value in experiment [6] was determined as 12 fold. In addition, the pIC50 in experiment [7] was 7.38; in [8] it was 8.46; in experiment [10], 8.00. In addition, the “Transient Replicon Fold Resistance C316Y/1a” value in [11] is reported as 24 fold.
